Data as given in patent US10798943B2, “Use of 6-anilino purine derivatives to improve heat stress tolerance of rice seedlings” (SYNGENTA PARTICIPATIONS AG, priority 2016, dated 2020).

What was measured:
Assay type in all cases: in vivo
[1] = test system: rice under heat stress; experiment: Yield in 2016 trial (Trial 3)
[2] = test system: rice seedlings (hybrid rice variety ADT45); experiment: Phytotoxicity assessments at Ramapuram trial; conditions: for Greenness at 3.2 leaf / Seedling height at 3.2 leaf / Seedling injury / Time to 3.2 leaf / Uniformity of foliage growth at 3.2 leaf / Uniformity of greening at 3.2 leaf / Whiteness of root mat at 3.2 leaf: Ramapuram
Method: For each trial, hybrid rice variety ADT45 was sown in seedling boxes. A compound of formula (Ia) was applied by foliar spray in the form of an EC formulation, at various dose rates and seedling growth stages as shown in Table 1. [table] […] The trial was carried out between 5 Aug. 2015 and 9 Sep. 2015, with transplanting on 15 Aug. 2015. The mean maximum daily temperature during the trial period was 35.3° C., and mean minimum daily temperature during the trial period was 23.7° C. The mean temperature during the entire trial period was 30.2° C.

[3] = test system: rice seedlings (hybrid rice variety ADT45) under heat stress; experiment: NVDI by Green Seeker crop sensor, Kumbakonam trial; parameters: key: NVDI as percentage green area (Green Seeker)
Description: (§1) Trials were setup in two locations in India to test the effect of compounds of formula I on tolerance of rice seedlings to heat stress during transplantation.
(§2) For each trial, hybrid rice variety ADT45 was sown in seedling boxes. A compound of formula (Ia) was applied by foliar spray in the form of an EC formulation, at various dose rates and seedling growth stages as shown in Table 1.
(§3) Transplanting took place at the […] growth stage. Transplant shock was used as an indicator of tolerance to heat stress, and was measured via visual assessment of damage severity on a scale of 0% (no damage) to 100% (dead plant); observations such as yellowing and leaf tip burning are indicators of damage. Transplant shock was also assessed by measuring NVDI values using a Green Seeker™ crop sensor, which measures the percentage green area. A low transplant shock stress rating and high NVDI rating indicate improved tolerance to transplant shock stress.
(§4) The trial was carried out between 7 May 2015 and 15 Jun. 2015, with transplanting on 29 May 2015. The mean maximum daily temperature during the trial period was 37.3° C., and mean minimum daily temperature during the trial period was 24.9° C. The mean temperature during the entire trial period was 31.1° C.

[4] = test system: rice seedlings (hybrid rice variety ADT45) under heat stress; experiment: Transplant shock stress, visual assessment of damage severity, Kumbakonam trial; conditions: for Transplanting shock stress (8th day) / Transplanting shock stress (12th day) / Transplanting shock stress (4th day): Kumbakonam
Description: as §1, §2, §3, §4

[5] = treatment 3: 10 g ai/ha, Sowing
[6] = treatment 5: 10 g ai/ha, 2-leaf
[7] = treatment 7: 10 g ai/ha, 3-leaf
[8] = treatment 2: 5 g ai/ha, Pigeon-breast
[9] = treatment 3: 10 g ai/ha, Pigeon-breast
[10] = treatment 4: 20 g ai/ha, Pigeon-breast
[11] = treatment 6: 10 g ai/ha, 2-leaf
[12] = treatment 7: 20 g ai/ha, 2-leaf
[13] = treatment 9: 10 g ai/ha, 3-leaf
[14] = treatment 10: 20 g ai/ha, 3-leaf

COc1cccc(Nc2nc(F)nc3[nH]cnc23)c1 [Formula Ia]
Average yield increase compared to UTC ([1]; treatment 2: 5 g ai/ha, Sowing): +2.9% | Yield at 14% MC ([1]; treatment 2: 5 g ai/ha, Sowing): 6799 kg/ha | Average yield increase compared to UTC [1, 5]: −0.1% | Yield at 14% MC [1, 5]: 6603 kg/ha | Average yield increase compared to UTC ([1]; treatment 4: 5 g ai/ha, 2-leaf): +6.2% | Yield at 14% MC ([1]; treatment 4: 5 g ai/ha, 2-leaf): 7014 kg/ha | Average yield increase compared to UTC [1, 6]: +8.8% | Yield at 14% MC [1, 6]: 7189 kg/ha | Average yield increase compared to UTC ([1]; treatment 6: 5 g ai/ha, 3-leaf): +5.6% | Yield at 14% MC ([1]; treatment 6: 5 g ai/ha, 3-leaf): 6978 kg/ha | Average yield increase compared to UTC [1, 7]: +3.3% | Yield at 14% MC [1, 7]: 6830 kg/ha | Phytotoxic effects to the rice seedlings (summary) ([2]; Ramapuram trial, some marginal effects at the highest dose rate): did not cause any phytotoxic effects | Greenness at 3.2 leaf [2, 8]: 3 unit | Seedling height at 3.2 leaf [2, 8]: 13 cm | Seedling injury [2, 8]: 0% | Time to 3.2 leaf [2, 8]: 14 days | Uniformity of foliage growth at 3.2 leaf [2, 8]: 90% | Uniformity of greening at 3.2 leaf [2, 8]: 95% | Whiteness of root mat at 3.2 leaf [2, 8]: 90% | Greenness at 3.2 leaf [2, 9]: 3 unit | Seedling height at 3.2 leaf [2, 9]: 13 cm | Seedling injury [2, 9]: 0% | Time to 3.2 leaf [2, 9]: 14 days | Uniformity of foliage growth at 3.2 leaf [2, 9]: 90% | Uniformity of greening at 3.2 leaf [2, 9]: 95% | Whiteness of root mat at 3.2 leaf [2, 9]: 90% | Greenness at 3.2 leaf [2, 10]: 3 unit | Seedling height at 3.2 leaf [2, 10]: 13 cm | Seedling injury [2, 10]: 0% | Time to 3.2 leaf [2, 10]: 14 days | Uniformity of foliage growth at 3.2 leaf [2, 10]: 90% | Uniformity of greening at 3.2 leaf [2, 10]: 95% | Whiteness of root mat at 3.2 leaf [2, 10]: 90% | Greenness at 3.2 leaf ([2]; treatment 5: 5 g ai/ha, 2-leaf): 3 unit | Seedling height at 3.2 leaf ([2]; treatment 5: 5 g ai/ha, 2-leaf): 15 cm | Seedling injury ([2]; treatment 5: 5 g ai/ha, 2-leaf): 0% | Time to 3.2 leaf ([2]; treatment 5: 5 g ai/ha, 2-leaf): 13 days | Uniformity of foliage growth at 3.2 leaf ([2]; treatment 5: 5 g ai/ha, 2-leaf): 90% | Uniformity of greening at 3.2 leaf ([2]; treatment 5: 5 g ai/ha, 2-leaf): 95% | Whiteness of root mat at 3.2 leaf ([2]; treatment 5: 5 g ai/ha, 2-leaf): 85% | Greenness at 3.2 leaf [2, 11]: 3 unit | Seedling height at 3.2 leaf [2, 11]: 15 cm | Seedling injury [2, 11]: 2% | Time to 3.2 leaf [2, 11]: 13 days | Uniformity of foliage growth at 3.2 leaf [2, 11]: 90% | Uniformity of greening at 3.2 leaf [2, 11]: 95% | Whiteness of root mat at 3.2 leaf [2, 11]: 85% | Greenness at 3.2 leaf [2, 12]: 2.5 unit | Seedling height at 3.2 leaf [2, 12]: 15 cm | Seedling injury [2, 12]: 5% | Time to 3.2 leaf [2, 12]: 13 days | Uniformity of foliage growth at 3.2 leaf [2, 12]: 90% | Uniformity of greening at 3.2 leaf [2, 12]: 85% | Whiteness of root mat at 3.2 leaf [2, 12]: 80% | Greenness at 3.2 leaf ([2]; treatment 8: 5 g ai/ha, 3-leaf): 3 unit | Seedling height at 3.2 leaf ([2]; treatment 8: 5 g ai/ha, 3-leaf): 14 cm | Seedling injury ([2]; treatment 8: 5 g ai/ha, 3-leaf): 0% | Time to 3.2 leaf ([2]; treatment 8: 5 g ai/ha, 3-leaf): 13 days | Uniformity of foliage growth at 3.2 leaf ([2]; treatment 8: 5 g ai/ha, 3-leaf): 90% | Uniformity of greening at 3.2 leaf ([2]; treatment 8: 5 g ai/ha, 3-leaf): 95% | Whiteness of root mat at 3.2 leaf ([2]; treatment 8: 5 g ai/ha, 3-leaf): 90% | Greenness at 3.2 leaf [2, 13]: 3 unit | Seedling height at 3.2 leaf [2, 13]: 15 cm | Seedling injury [2, 13]: 0% | Time to 3.2 leaf [2, 13]: 13 days | Uniformity of foliage growth at 3.2 leaf [2, 13]: 90% | Uniformity of greening at 3.2 leaf [2, 13]: 95% | Whiteness of root mat at 3.2 leaf [2, 13]: 90% | Greenness at 3.2 leaf [2, 14]: 3 unit | Seedling height at 3.2 leaf [2, 14]: 15 cm | Seedling injury [2, 14]: 0% | Time to 3.2 leaf [2, 14]: 13 days | Uniformity of foliage growth at 3.2 leaf [2, 14]: 90% | Uniformity of greening at 3.2 leaf [2, 14]: 95% | Whiteness of root mat at 3.2 leaf [2, 14]: 90% | NVDI data (10 DAT) [3, 8]: 12 | NVDI data (15 DAT) [3, 8]: 19 | NVDI data (10 DAT) [3, 9]: 6 | NVDI data (15 DAT) [3, 9]: 19 | NVDI data (10 DAT) [3, 10]: 10 | NVDI data (15 DAT) [3, 10]: 20 | NVDI data (10 DAT) ([3]; treatment 5: 5 g ai/ha, 2-leaf): 13 | NVDI data (15 DAT) ([3]; treatment 5: 5 g ai/ha, 2-leaf): 22 | NVDI data (10 DAT) [3, 11]: 12 | NVDI data (15 DAT) [3, 11]: 20 | NVDI data (10 DAT) [3, 12]: 11 | NVDI data (15 DAT) [3, 12]: 19 | NVDI data (10 DAT) ([3]; treatment 8: 5 g ai/ha, 3-leaf): 10 | NVDI data (15 DAT) ([3]; treatment 8: 5 g ai/ha, 3-leaf): 19 | NVDI data (10 DAT) [3, 13]: 15 | NVDI data (15 DAT) [3, 13]: 18 | NVDI data (10 DAT) [3, 14]: 15 | NVDI data (15 DAT) [3, 14]: 20 | Tolerance to heat stress / transplant shock stress, comparison of treatments ([4]; Kumbakonam trial, treatments 5 and 6 (2-leaf growth stage, 5-10 g ai/ha)): giving the best results | Transplanting shock stress (8th day) [4, 8]: 35% | Transplanting shock stress (12th day) [4, 8]: 15% | Transplanting shock stress (4th day) ([4]; treatment 2: 5 g ai/ha, Pigeon-breast, scale 0% no damage to 100% dead plant): 32% | Transplanting shock stress (4th day) [4, 9]: 38% | Transplanting shock stress (8th day) [4, 9]: 32% | Transplanting shock stress (12th day) [4, 9]: 17% | Transplanting shock stress (4th day) [4, 10]: 30% | Transplanting shock stress (8th day) [4, 10]: 22% | Transplanting shock stress (12th day) [4, 10]: 13% | Transplanting shock stress (4th day) ([4]; treatment 5: 5 g ai/ha, 2-leaf): 15% | Transplanting shock stress (8th day) ([4]; treatment 5: 5 g ai/ha, 2-leaf): 13% | Transplanting shock stress (12th day) ([4]; treatment 5: 5 g ai/ha, 2-leaf): 7% | Transplanting shock stress (4th day) [4, 11]: 30% | Transplanting shock stress (8th day) [4, 11]: 22% | Transplanting shock stress (12th day) [4, 11]: 10% | Transplanting shock stress (4th day) [4, 12]: 35% | Transplanting shock stress (8th day) [4, 12]: 37% | Transplanting shock stress (12th day) [4, 12]: 22% | Transplanting shock stress (4th day) ([4]; treatment 8: 5 g ai/ha, 3-leaf): 27% | Transplanting shock stress (8th day) ([4]; treatment 8: 5 g ai/ha, 3-leaf): 32% | Transplanting shock stress (12th day) ([4]; treatment 8: 5 g ai/ha, 3-leaf): 17% | Transplanting shock stress (4th day) [4, 13]: 42% | Transplanting shock stress (8th day) [4, 13]: 27% | Transplanting shock stress (12th day) [4, 13]: 15% | Transplanting shock stress (4th day) [4, 14]: 45% | Transplanting shock stress (8th day) [4, 14]: 37% | Transplanting shock stress (12th day) [4, 14]: 25%
